In US6806267B1, “Apoptosis-inducing compounds” (priority 1998, dated 2004):

Tests used:
[1] = system: Cytochrome C; assay: Cytochrome C Western blot, HL-60 cytosol; assay type: cell-based, human; conditions: HL-60 cells
Protocol: Cells (15×10^6) were harvested by centrifugation at 1800 g for 10 min at 4° C. After being washed once with ice-cold phosphate-buffered saline, the cell pellet was suspended in 100 μl of ice-cold buffer A (20 mM Hepes, pH 7.5, 10 mM KCl, 1.5 mM MgCl2, 1 mM sodium EDTA, 1 mM sodium EGTA, 1 mM dithiotreitol and 0.1 mM phenylmethylsulfonyl fluoride) supplemented with protease inhibitors (5 μg/ml pepstatin A, 10 μg/ml leupeptin and 2 μg/ml of aprotinin). The cells were left to sit on ice for 15 min and then centrifuged at 20,000 g for 20 min. The resulting supernatant was stored at −70° C. until measurement of cytochrome C. Protein determination was measured by using the Bradford assay. Equal amounts of protein were resolved by SDS-polyacrylamide gel electrophoresis in 15% gels and transferred onto nitro-cellulose. Membranes were blocked with phosphate-buffered saline/5% (w/v) dry milk and probed with anti-cytochrome C antibody. Blots were washed, incubated with goat anti-mouse IgG peroxidase conjugate and developed by ECL according to the manufacturer's recommendations.

[2] = system: HL-60 cells; assay: Apoptosis in HL-60 cells, cytospin and Rapi-Diff staining
[3] = system: BCR-abl; assay: Western blot analysis of BCR-abl in CML cells; assay type: cell-based, human
[4] = system: tyrosine phosphorylated proteins; assay: Protein tyrosine phosphorylation Western blot, K562 cells; assay type: cell-based, human
Protocol: (§1) Jurkat and CML cells (5×10^6) were harvested by centrifuigation at 1800 g for 10 min at 4° C. After being washed once with ice-cold phosphate-buffered saline, the cell pellet was suspended in 100 μl of ice-cold lysis buffer (50 mM Tris-HCl, pH 8.0, 150 mM NaCl, 0.1%.SDS, 1% Triton X-100, 1 mM sodium 1 mM phenylmethylsulfonyl, 10 ng/ml leupeptin and 10 ng/ml of aprotinin). The cells were left to sit on ice for 10 min and then centrifuged at 20,000 g for 20 min. The resulting supernatant was stored at −70° C. until measurement of tyrosine phosphorylation. Protein determination was measured by using the Bradford assay. Equal amounts of protein were resolved by SDS-polyacrylamide gel electrophoresis in 15% gels and transferred onto polyvinylidene difluoride (PVDF) membranes. Membranes were blocked with Tris-buffered saline with Tween 20 (10 mM Tris-HCl, pH 8.0, 150 mM NaCl, 0.05% Tween 20) containing 1% w/v BSA and probed with anti-phosphotyrosine antibody. Blots were washed, incubated with goat anti-mouse IgG peroxidase conjugate and developed by ECL according to the manufacturer's recommendations.

[5] = molecular target: T1, peripheral-type benzodiazepine receptor (PBR) (Homo sapiens, UniProt P30536); assay: Radioligand binding assay, inhibition of [^3H]PK 11195 binding to HL-60 homogenates; conditions: HL-60 homogenates, 2 nM [^3H]PK 11195; mean±SEM; read-out: Inhibition of [^3H]PK 11195 binding to the PBR, Ki value
T1 construct: Cell homogenates (50 μg protein) were incubated with 0.5-50 nM [^3H]; PK 11195; endogenous in cells; host or cells: HL-60 cell homogenate
T1 sequence (P30536 whole entry): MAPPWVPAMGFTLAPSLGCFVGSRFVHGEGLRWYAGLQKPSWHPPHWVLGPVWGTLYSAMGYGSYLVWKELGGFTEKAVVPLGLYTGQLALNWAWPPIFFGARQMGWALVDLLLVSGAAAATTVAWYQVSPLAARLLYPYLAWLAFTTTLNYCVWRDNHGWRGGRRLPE
Protocol: HL-60 cells were harvested by centrifugation at 600 g for 5 min and washing in phosphate-buffered saline. The resulting cell pellet was homogenised in 50 mM Tris/HCl buffer, pH 7.4 (2 ml), using an Ultraturrax homogeniser (10 sec) and then passed 5 times through a 21 gauge needle. Cell homogenates (50 μg protein) were incubated with 0.5-50 nM [^3H] PK 11195 in 50 mM Tris/HCl buffer, pH 7.4 (incubation buffer), in a total volume of 0.5 ml on ice. Total and non-specific/non-saturable binding in each case was determined in the absence and presence of 10 μM unlabelled PK 11195 respectively. All samples were incubated in triplicate for 60 min. The incubation mixtures were then filtered and counted as previously described (O'Beirne, et al., 1988). When testing the potency of a compound to inhibit [^3H] PK 11195 binding, samples were incubated with 2 nM [3H] PK 11195 and various concentrations (0.1 nM to 1 μM) of compound and subsequently treated exactly as above. The resulting Ki values were then generated by the use of the computer programs EBDA and LIGAND.
The amount of radioactivity bound in the presence of the displacer was expressed as a percentage of control bonding and the values represent the mean±SEM of triplicate determinations from one representative experiment performed at least twice. The Ki values were obtained as described in Methods section.

[6] = system: tyrosine phosphorylated proteins; assay: Protein tyrosine phosphorylation Western blot, Jurkat cells; assay type: cell-based, human
Protocol: as §1

[7] = system: HL-60 cells; assay: Agarose gel electrophoresis of DNA ladders, HL-60 cells; assay type: cell-based, human; conditions: 24 hours
[8] = system: JNK1 and JNK2; assay: Western blot of JNK activation in HL-60 cells; assay type: cell-based, human
[9] = system: CML cell lines K562, KYO.1 and Lama 84; assay: Agarose gel electrophoresis of DNA ladders, CML cells; assay type: cell-based, human; conditions: all three CML cell lines
[10] = system: PARP (poly ADP-ribose polymerase); assay: Western blot of PARP cleavage in CML cells; assay type: cell-based, human
Protocol: CML cells were seeded at 2×10^6 cells in 5 mls of growth medium, and treated with 10 μM PBOX-6 for 16 and 24 hr. Hela cells were seeded at 1×10^6 cells per 25 cm^2 flask. Following a 24 hour incubation, the cells were treated with PBOX-3 for a further 48 hours and the cells were scraped up. Cells were then centrifuged at 500 g for 5 min, the supernatant was removed and the pellet was resuspended in 200 μl of PARP sample buffer (62.5 mM Tris/HCl pH 6.8, 6 M urea, 10% (w/v) glycerol, 2% (w/v) SDS, 0.00125% bromophenol blue, and 5% (v/v) β-mercaptoethanol was added immediately before use). Samples were sonicated for 15 sec before aliquoting into 15 μl volumes. Samples were stored at −20° C. until use. 10-15 μl of thawed samples were resolved directly on a 10% polyacrylamide gel and transferred onto PVDF membrane at room temperature using wet transfer apparatus. After transfer, the membrane was blocked overnight in PBS containing 5% dry milk (Marvel). After blocking, the membrane was washed in PBST for 2×2 minutes before incubating for 1 hr with anti-PARP antibody (2 μg/ml in PBST containing 1% dry milk). Following incubation the membrane was washed for 20 minutes in PBST and incubated with goat anti mouse HRP conjugated secondary antibody (1:1000 dilution in PBST containing 1% dry milk). After washing in PBST for 30 minutes, ECL was used to visualise the proteins. […]

[11] = HL-60 cells and the 3 CML cell lines

## CN(C)C(=O)OC1=C(c2cccc3ccccc23)Oc2ccccc2-n2cccc21 [PBOX-6, 7-((Dimethylcarbamoyl)oxy)-6-(1-naphthyl)pyrrolo[2,1-d][1,5]benzoxazepine]
[1]
  Cytochrome C in the cytosol: accumulation of Cytochrome C in the cytosol
[2]; HL-60 cells
  apoptosis below a final concentration of 5 μM: negligible
  time at which morphological signs of apoptosis became apparent: 6 hours
[2]; [11]
  concentration at which apoptosis was first observed: 5 µM
  time after which apoptosis was first observed: 4 h
[2]; HL-60 cells, 10 μM, 16 hours
  degree of necrosis: negligible
[2]; Homo sapiens, HL-60, 16 h, read-out: % Apoptosis
  cytotoxicity at 10 µM: 38.6 ± 4.6%
[3]; K562 and KYO.1 cells
  BCR-abl expression: downregulation of BCR-abl was detected, but not until 24 hours
[3]; Lama 84 cells, up to 72 hours
  downregulation of BCR-abl: not detected
[4]; K562, 5, 15 or 30 min
  tyrosine phosphorylation status of proteins: no effect
[4]; K562, 16 hours, proteins approx 63 kDa and 71 kDa
  tyrosine phosphorylation status of proteins: increase in the phosphorylation of two proteins
[5]
  Ki: 6.7 ± 1.7 nM
[6]
  protein tyrosine phosphorylation: time and dose-dependent decrease in protein tyrosine phosphorylation
[7]
  DNA fragmentation (ladder pattern): resulted in DNA fragmentation
[8]
  activation of JNK: transient activation of 2 JNK isoforms
  time of peak JNK activation: 1 h
[9]
  internucleosomal DNA fragmentation (DNA ladders): DNA laddering pattern was visible
[10]; K562 24 hours, Lama 84 16 hours
  PARP cleavage: PARP cleavage occurs
[10]; KYO.1 cells, 24 hours
  PARP cleavage: result in PARP cleavage
